Test results: patent publication US20240308968A1, “FUNGICIDAL SUBSTITUTED HETEROCYCLES” (FMC Corporation, priority 2021, published 2024)

Columns and labels:
Type in all cases: in vivo
Conditions in all cases: 100 = 100% disease control, 0 = no control
Zymoseptoria tritici = assay: Test A: preventive spray on wheat seedlings, wheat leaf blotch disease rating
Method in brief: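 Disease scored after 17 days in a 20 °C growth chamber, following 48 h at 24 °C in saturated air after spore inoculation with Z. tritici. Inoculation came one day after wheat seedlings were sprayed to run-off with test suspension (acetone/water 50/50, 50–250 ppm PEG400).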

[1] = test system: Puccinia recondita f. sp. Tritici; assay: Test B: preventive spray on wheat seedlings, wheat leaf rust disease rating
Method in brief: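 Preventive test: one day after spraying wheat seedlings to run-off with ppm suspensions (acetone/water 1:1, 50-250 ppm PEG400), leaf rust spores were applied. Incubation was 24 h at saturation then 7 days at 20° C.; disease scored 0-100% control relative to untreated.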

[2] = test system: Blumeria graminis f. sp. Tritici; assay: Test C: preventive spray on wheat seedlings, wheat powdery mildew disease rating
Method in brief: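 Disease control scored visually after 8 days at 20° C, on a 0–100 scale versus untreated controls. Seedlings had received a preventive run-off spray one day before dusting with powdery mildew spores; compounds were suspended in acetone/water (50/50) containing 50–250 ppm PEG400.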

Phakopsora pachyrhizi = assay: Test D: preventive spray on soybean seedlings, Asian soybean rust disease rating
Method in brief: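 Seedlings of soybean were challenged with rust spores one day after a run-off spray of test suspension (acetone/water 50/50, 50–250 ppm PEG400); after 24 h saturated humidity and 8 days growth, both at 22° C, disease was scored visually.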

Botrytis cinerea = assay: Test E: preventive spray on tomato seedlings, tomato Botrytis disease rating
Method in brief: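 Preventive test: one day after spraying seedlings to run-off with test suspension (ppm in acetone/water, 50–250 ppm PEG400), B. cinerea spores applied. Incubation 48 h at 20 °C saturated humidity plus 3 days at 24 °C preceded visual rating as percent disease control versus controls.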

Alternaria solani = assay: Test F: preventive spray on tomato seedlings, tomato early blight disease rating
Method in brief: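 Preventive test: a day after run-off spraying with acetone/water–PEG400 suspensions (ppm), seedlings received an A. solani spore inoculum. Incubation was 48 h at 27 °C in saturated air followed by 3 days in a 20 °C chamber. Visual scores express percent disease control versus untreated plants (0–100).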

Compound	Test A disease control rating (Zymoseptoria tritici; 50 ppm)	Test B disease control rating ([1]; 50 ppm)	Test C disease control rating ([2]; 50 ppm)	Test D disease control rating (Phakopsora pachyrhizi; 50 ppm)	Test E disease control rating (Botrytis cinerea; 50 ppm)	Test F disease control rating (Alternaria solani; 50 ppm)	Test A disease control rating (Zymoseptoria tritici; 250 ppm)	Test B disease control rating ([1]; 250 ppm)	Test C disease control rating ([2]; 250 ppm)	Test D disease control rating (Phakopsora pachyrhizi; 250 ppm)	Test E disease control rating (Botrytis cinerea; 250 ppm)	Test F disease control rating (Alternaria solani; 250 ppm)	also measured
COc1cc(OC)c(Br)c(-c2c(-c3ccc(F)cc3F)noc(=O)c2C)c1 [Compound 63]	100%	100%	56%	0%	97%	0%							
COc1cc(-c2cc(C#N)c(=O)n(C)c2-c2c(F)cc(F)cc2F)cc(OC)c1Cl [Compound 71, 5-(4-chloro-3,5-dimethoxyphenyl)-1,2-dihydro-1-methyl-2-oxo-6-(2,4,6-trifluorophenyl)-3-pyridinecarbonitrile]													pest or weed control at 50 ppm (Zymoseptoria tritici; Zymoseptoria tritici, 456 h, 50 ppm): 87%; pest or weed control at 50 ppm ([1]; Puccinia recondita, 192 h, 50 ppm): 99%; pest or weed control at 50 ppm ([2]; Blumeria graminis, 192 h, 50 ppm): 47%; pest or weed control at 50 ppm (Phakopsora pachyrhizi; Phakopsora pachyrhizi, 216 h, 50 ppm): 92%; pest or weed control at 50 ppm (Botrytis cinerea; Botrytis cinerea, 120 h, 50 ppm): 63%; pest or weed control at 50 ppm (Alternaria solani; Alternaria solani, 120 h, 50 ppm): 0%
CCn1c(-c2c(F)cc(F)cc2F)c(-c2cc(OC)c(Cl)c(OC)c2)cc(C#N)c1=O [Compound 72]	93%	98%	21%	77%	90%	0%							
CCOC(=O)c1nn(-c2cc(OC)ccc2Cl)c(-c2ccc(F)cc2F)c(C(=O)OCC)c1=O [Compound 81]	0%	19%	0%	0%	0%	0%							
CCOC(=O)c1nn(-c2cc(OC)ccc2Cl)c(-c2ccc(F)cc2)c(C(=O)OCC)c1=O [Compound 82]	3%	28%	0%	0%	0%	0%							
COc1cc(OC)c(Cl)c(-n2nc(C#N)c(=O)c(C)c2-c2ccc(F)cc2Cl)c1 [Compound 83]	99%	100%	98%	100%	94%	100%							
COc1cc(OC)c(Cl)c(-n2nc(C)c(=O)c(C)c2-c2ccc(F)cc2Cl)c1 [Compound 84]	100%	100%	99%	100%	94%	100%							
COc1cc(OC)c(Cl)c(-n2nc(CF)c(=O)c(C)c2-c2ccc(F)cc2Cl)c1 [Compound 85]	100%	100%	99%	100%	93%	100%							
COc1cc(OC)c(Cl)c(-n2nc(NC(=O)OC(C)(C)C)c(=O)c(C)c2-c2ccc(F)cc2Cl)c1 [Compound 86]							83%	98%	0%	0%	43%	0%	
COc1cc(OC)c(Cl)c(-n2nc(N)c(=O)c(C)c2-c2ccc(F)cc2Cl)c1 [Compound 87]	100%	98%	96%	100%	96%	99%							
CCOC(=O)c1nn(-c2cc(OC)cc(OC)c2)c(-c2ccc(F)cc2F)c(C(=O)OCC)c1=O [Compound 88]							0%	0%	0%	0%	0%	0%	
CCOC(=O)c1c(-c2ccc(F)cc2F)n(-c2cc(OC)cc(OC)c2)nc(C(=O)O)c1=O [Compound 89]							0%	0%	0%	0%	0%	0%	
COc1cc(OC)cc(-n2nc(CF)c(=O)c(C)c2-c2ccc(F)cc2Cl)c1 [Compound 90]	99%	100%	97%	100%	99%	99%							
COc1cc(OC)cc(-n2nc(CO)c(=O)c(C)c2-c2ccc(F)cc2Cl)c1 [Compound 91]							0%	99%	0%	75%	79%	17%	
COc1cc(OC)c(Cl)c(-n2nc(I)c(=O)c(C)c2-c2ccc(F)cc2Cl)c1 [Compound 96]	100%	100%	99%	100%	98%	100%							
CCOC(=O)c1nn(-c2cc(OC)cc(OC)c2Cl)c(-c2ccc(F)cc2Cl)c(C)c1=O [Compound 98]							0%	98%	0%	94%	96%	0%	
COc1cc(OC)c(Cl)c(-n2nc(CO)c(=O)c(Cl)c2-c2ccc(F)cc2Cl)c1 [Compound 99]							100%	100%	95%	99%	93%	96%	
COc1ccc(Cl)c(-n2nc(Br)c(=O)c(Cl)c2-c2ccc(F)cc2Cl)c1 [Compound 101]	98%	99%	89%	99%	98%	98%							
COc1ccc(Cl)c(-n2nc(Br)c(=O)c(Br)c2-c2ccc(F)cc2Cl)c1 [Compound 102]	97%	99%	0%	99%	99%	88%							
COc1ccc(Cl)c(-n2nc(Cl)c(=O)c(Cl)c2-c2ccc(F)cc2Cl)c1 [Compound 103]	100%	100%	97%	100%	100%	99%							
